In data set [1] the test system is Mus musculus. In words: Anticonvulsant activity in Swiss albino Mus musculus (mouse) assessed as protection against maximal electroshock-induced seizures at 300 mg/kg, ip after 0.5 hr. The format is functional, organism-based. Set-up: dose 300 mg/kg. (In general: In the maximal electroshock model the usual endpoint is tonic extension of the hind limbs.)
Data set [2] concerns Mus musculus. As to the kind of experiment: Anticonvulsant activity in Swiss albino Mus musculus (mouse) assessed as protection against subcutaneous pentylenetetrazole-induced seizure at 300 mg/kg, ip after 0.5 hr. In kind it is functional, organism-based. Set-up: dose 300 mg/kg.
Data set [3] deals with Mus musculus. As to the kind of experiment: Anticonvulsant activity in Swiss albino Mus musculus (mouse) assessed as protection against subcutaneous pentylenetetrazole-induced seizure at 300 mg/kg, ip after 4 hr. In kind it is functional, organism-based. On the set-up: dose 300 mg/kg.
Data set [4] relates to Mus musculus. In words: Anticonvulsant activity in Swiss albino Mus musculus (mouse) assessed as protection against maximal electroshock-induced seizures at 300 mg/kg, ip after 4 hr. Set-up: dose 300 mg/kg. In kind it is functional, organism-based.
In data set [5] the test system is Mus musculus. As to the kind of experiment: Neurotoxicity in Swiss albino Mus musculus (mouse) assessed as minimal motor impairment at 300 mg/kg, ip after 0.5 hr by rotorod test. Set-up: dose 300 mg/kg, route intraperitoneal. The conditions noted are these: in vivo. In kind it is toxicity, organism-based.
In data set [6] the test system is Mus musculus. As to the kind of experiment: Neurotoxicity in Swiss albino Mus musculus (mouse) assessed as minimal motor impairment at 300 mg/kg, ip after 4 hr by rotorod test. The format is toxicity, organism-based. On the set-up: dose 300 mg/kg, route intraperitoneal. The conditions noted are these: in vivo. Background: In the rotarod test animals must keep their balance on a rotating rod.

Data set [7] concerns Mus musculus. As to the kind of experiment: Anticonvulsant activity in Swiss albino Mus musculus (mouse) assessed as protection against maximal electroshock-induced seizures at 100 mg/kg, ip after 0.5 hr. The format is functional, organism-based. Set-up: dose 100 mg/kg.
Data set [8] has as its system Rattus norvegicus. As to the kind of experiment: Anticonvulsant activity in Wistar Rattus norvegicus (rat) assessed as protection against maximal electroshock-induced seizures at 30 mg/kg, po after 2 hr. The format is functional.
In data set [9] the test system is Mus musculus. As to the kind of experiment: Anticonvulsant activity in Swiss albino Mus musculus (mouse) assessed as protection against maximal electroshock-induced seizures at 100 mg/kg, ip after 4 hr. Set-up: dose 100 mg/kg. In kind it is functional, organism-based.
Data set [10] has as its system Mus musculus. In words: Anticonvulsant activity in Swiss albino Mus musculus (mouse) assessed as protection against maximal electroshock-induced seizures at 30 mg/kg, ip after 0.5 hr. The format is functional, organism-based. On the set-up: dose 30 mg/kg.
Data set [11] deals with Rattus norvegicus. In words: Anticonvulsant activity in Wistar Rattus norvegicus (rat) assessed as protection against maximal electroshock-induced seizures at 30 mg/kg, po after 4 hr. The format is functional.
The subject of data set [12] is Rattus norvegicus. As to the kind of experiment: Anticonvulsant activity in Wistar Rattus norvegicus (rat) assessed as protection against maximal electroshock-induced seizures at 30 mg/kg, po after 0.5 hr. The format is functional.
In data set [13] the test system is Rattus norvegicus. In words: Neurotoxicity in Wistar Rattus norvegicus (rat) assessed as minimal motor impairment at 30 mg/kg, po after 0.25 to 4 hr by rotorod test. The format is toxicity, organism-based. Set-up: dose 30 mg/kg, route oral. The conditions noted are these: in vivo.
Data set [14] concerns Rattus norvegicus. As to the kind of experiment: Anticonvulsant activity in Wistar Rattus norvegicus (rat) assessed as protection against maximal electroshock-induced seizures at 30 mg/kg, po after 1 hr. In kind it is functional.
In data set [15] the test system is Rattus norvegicus. In words: Anticonvulsant activity in Wistar Rattus norvegicus (rat) assessed as protection against maximal electroshock-induced seizures at 30 mg/kg, po after 0.25 hr. The format is functional.
Data set [16] deals with Mus musculus. As to the kind of experiment: Anticonvulsant activity in Swiss albino Mus musculus (mouse) assessed as protection against subcutaneous pentylenetetrazole-induced seizure at 100 mg/kg, ip after 0.5 hr. In kind it is functional, organism-based. Set-up: dose 100 mg/kg.

The source made the active and inactive calls. The rule behind the calls is not given here.

Consider `Cc1nc2c(Br)cc(Br)cc2c(=O)n1-c1ccc(C(=O)N2N=C(c3ccccc3)CC2c2cccc([N+](=O)[O-])c2)cc1` (stereo unspecified), for which the outcome in data set [1], in data set [2] and in data set [4] was inactive. In addition, in data set [3], the outcome was Active.
In the case of `COc1ccc(C2CC(c3ccccc3)=NN2C(=O)c2ccc(-n3c(C)nc4c(Br)cc(Br)cc4c3=O)cc2)cc1` (stereo unspecified), the outcome in data set [2], in [4] and in [7] was Active. Moreover, in [3], the result was inactive. The Activity result in data set [5] and in data set [6] was “Toxic” throughout.
Take `Cc1nc2c(Br)cc(Br)cc2c(=O)n1-c1ccc(C(=O)N2N=C(c3ccccc3)CC2c2ccc(O)cc2)cc1` (stereo unspecified): the Activity is 100% in data set [8]; “Toxic” in data set [5]; 100% in data set [11]; 50% in [12]; “Non-toxic” in data set [13]; 50% in data set [14]. For the same compound, the Activity result in data set [6] is listed as “Non-toxic”; in data set [15], 25%. For the same compound, the result in data set [2], in [9], in data set [10] and in data set [3] was Active.
As for `Cc1ccc(C2CC(c3ccccc3)=NN2C(=O)c2ccc(-n3c(-c4ccccc4)nc4ccccc4c3=O)cc2)cc1` (stereo unspecified), in [1], the outcome was Active. For the same compound, the outcome in data set [2], in data set [3] and in data set [4] was inactive.
As to `Cc1ccc(C2CC(c3ccccc3)=NN2C(=O)c2ccc(-n3c(C)nc4ccccc4c3=O)cc2)cc1` (stereo unspecified), the Activity is recorded as 75% in data set [8]; “Non-toxic” in data set [5]; 75% in data set [11]; 50% in data set [12]; “Non-toxic” in [13]; 50% in [14]. For the same compound, the Activity entry in data set [6] was “Non-toxic”; in [15], 25%. Also, the outcome in [3], in [16], in data set [4] and in data set [7] was Active.
For the compound `CCC1(C)CC(=O)NC1=O` (stereo unspecified) [ETHOSUXIMIDE], the outcome in [1] and in [4] was inactive. Also, the result in data set [3] and in data set [16] was Active. Also, the Activity result in data set [5] and in data set [6] was “Non-toxic” in each case.
Turning to `COc1ccc(C2CC(c3ccccc3)=NN2C(=O)c2ccc(-n3c(-c4ccccc4)nc4ccccc4c3=O)cc2)cc1` (stereo unspecified), the result in [1] and in data set [2] was inactive. In addition, the result in data set [3] and in [4] was Active.
Turning to `O=C(c1ccc(-n2c(-c3ccccc3)nc3ccccc3c2=O)cc1)N1N=C(c2ccccc2)CC1c1cccc([N+](=O)[O-])c1` (stereo unspecified), the result in [1], in [3] and in data set [4] was inactive. The result in data set [2] was Active.
In the case of `O=C(c1ccc(-n2c(-c3ccccc3)nc3ccccc3c2=O)cc1)N1N=C(c2ccccc2)CC1c1ccc(O)cc1` (stereo unspecified), the outcome in [2] and in data set [4] was inactive. The result in data set [3] and in data set [7] was Active. In addition, the Activity result in data set [5] and in data set [6] was “Non-toxic” each time.
As to `Cc1nc2ccccc2c(=O)n1-c1ccc(C(=O)N2N=C(c3ccccc3)CC2c2ccc(N(C)C)cc2)cc1` (stereo unspecified), the Activity in data set [8] was 25%; in data set [5], “Non-toxic”; in data set [11], 50%; in data set [12], 0%; in [13] it was “Non-toxic”; in [14], 0%. Further, the Activity result in data set [6] was “Non-toxic”; in data set [15], 0%. Also, the result in data set [3], in data set [16], in data set [4] and in data set [7] was Active.
Regarding `Cc1nc2ccccc2c(=O)n1-c1ccc(C(=O)N2N=C(c3ccccc3)CC2c2cccc([N+](=O)[O-])c2)cc1` (stereo unspecified), the result in data set [1], in [2] and in data set [4] was inactive. Also, the outcome in data set [3] was Active.
`CN(C)c1ccc(C2CC(c3ccccc3)=NN2C(=O)c2ccc(-n3c(-c4ccccc4)nc4ccccc4c3=O)cc2)cc1` (stereo unspecified): the result in [1], in [2] and in data set [3] was inactive. In addition, the outcome in [4] was Active.
`O=C(c1ccc(-n2c(-c3ccccc3)nc3ccccc3c2=O)cc1)N1N=C(c2ccccc2)CC1c1ccc(Cl)cc1` (stereo unspecified): the result in [2], in data set [4] and in data set [7] was Active. The outcome in data set [3] was inactive. Further, the Activity result in data set [5] was “Non-toxic”; in data set [6], “Toxic”.
With `Cc1nc2ccccc2c(=O)n1-c1ccc(C(=O)N2N=C(c3ccccc3)CC2c2ccc(Cl)cc2)cc1` (stereo unspecified), the Activity in data set [8] is 75%; in data set [5] it was “Toxic”; in data set [11] it was 75%; in data set [12], 50%; in data set [13], “Non-toxic”; in [14], 50%. For the same compound, the Activity result is “Non-toxic” in data set [6] and 25% in data set [15]. Moreover, the outcome in data set [9], in data set [10], in data set [3] and in [16] was Active.
`Cc1nc2c(Br)cc(Br)cc2c(=O)n1-c1ccc(C(=O)N2N=C(c3ccccc3)CC2c2ccc(N(C)C)cc2)cc1` (stereo unspecified): the Activity in [8] is 0%; in [5], “Toxic”; in [11], 0%; in [12], 50%; in data set [13], “Non-toxic”; in data set [14], 25%. Moreover, the values for the Activity result in [6] and in data set [15] were “Toxic” and 0%, respectively. For the same compound, the result in data set [2], in [9] and in data set [10] was Active. The result in data set [3] was inactive.
On to `COc1ccc(C2CC(c3ccccc3)=NN2C(=O)c2ccc(-n3c(C)nc4ccccc4c3=O)cc2)cc1` (stereo unspecified), for which the result in [2] and in data set [7] was Active. The outcome in data set [3] and in [4] was inactive. For the same compound, the values for the Activity result in [5] and in data set [6] were “Non-toxic” and “Toxic”, respectively.
Take `Cc1nc2c(Br)cc(Br)cc2c(=O)n1-c1ccc(C(=O)N2N=C(c3ccccc3)CC2c2ccc(Cl)cc2)cc1` (stereo unspecified): the Activity is listed as 100% in data set [8]; “Non-toxic” in data set [5]; 100% in data set [11]; 50% in data set [12]; “Non-toxic” in [13]; 50% in data set [14]. Besides, the Activity entry in [6] is recorded as “Non-toxic”; in [15] it was 25%. The result in data set [9], in [10], in data set [3] and in [16] was Active.

The values above are taken from ChEMBL document CHEMBL3045074, “Synthesis and anticonvulsant activity of novel quinazolin-4(3H)-one derived pyrazole analogs” (Med Chem Res, 2013).
